Patent US4628104A, “Imidazole ketone derivatives” (G. D. Searle & Co., priority 1985, dated 1986)
≈ marks a conversion by molar mass, not a printed value. Where “and” joins values, the source holds several entries; their conditions need not be identical. Identical values can stand only once. Counter-ions that a name gives are not always drawn. Like-named read-outs stand apart in the source and are kept apart here.

Legend:
[1] = tested on: B. fragilis NCTC 10581; assay: Anti-anaerobic activity, microtitre plate broth dilution, strain A; format: cell-based, Bacteroides fragilis; settings: for MBC / MIC: Bacteroides fragilis, NCTC10581, 48 h; for MBC: read-out: MBC (Minimum Bactericidal Concentration); for MIC: 48 hours at 37° C., anaerobic, read-out: MIC (Minimum Inhibitory Concentration)
[2] = tested on: B. fragilis MZ-R ATCC 11295; assay: Anti-anaerobic activity, microtitre plate broth dilution, strain D; format: cell-based, Bacteroides fragilis; settings: for MBC / MIC: Bacteroides fragilis, ATCC11295, 48 h; for MBC: 99.9% reduction in viable count, 48 hours, read-out: MBC (Minimum Bactericidal Concentration); for MIC: read-out: MIC (Minimum Inhibitory Concentration)
[3] = tested on: B. fragilis WS-1; assay: Anti-anaerobic activity, microtitre plate broth dilution, strain E; format: cell-based; settings: Bacteroides fragilis, WS1, 48 h, 48 hours at 37° C., read-out: MIC (Minimum Inhibitory Concentration)
[4] = tested on: B. fragilis NCTC 9343; assay: Anti-anaerobic activity, microtitre plate broth dilution, strain B; format: cell-based, Bacteroides fragilis; settings: for MBC / MIC: Bacteroides fragilis, NCTC9343, 48 h; for MBC: read-out: MBC (Minimum Bactericidal Concentration); for MIC: read-out: MIC (Minimum Inhibitory Concentration)
[5] = tested on: B. fragilis NCTC 9344; assay: Anti-anaerobic activity, microtitre plate broth dilution, strain C; format: cell-based; settings: Bacteroides fragilis, NCTC9344, 48 h; for MBC: 99.9% reduction in viable count, 48 hours, read-out: MBC (Minimum Bactericidal Concentration); for MIC: 48 hours at 37° C., anaerobic, read-out: MIC (Minimum Inhibitory Concentration)
[6] = tested on: Propionibacterium acnes NCTC 7337; assay: Anti-anaerobic activity, additional strains, strain O; format: cell-based; settings: Cutibacterium acnes, NCTC7337
[7] = tested on: Clostridium perfringens NCTC 523; assay: microbe, parasite or virus in culture; format: cell-based; settings: NCTC523
[8] = tested on: Fusobacterium necrophorum ATCC 11295; assay: Anti-anaerobic activity, additional strains, strain J; format: cell-based
[9] = tested on: Clostridium perfringens NCTC 8237; assay: microbe, parasite or virus in culture; format: cell-based; settings: NCTC8237, strain G
[10] = tested on: Propionibacterium acnes NCTC 737; assay: Anti-anaerobic activity, additional strains, strain N; format: cell-based; settings: Cutibacterium acnes, NCTC737
[11] = tested on: Peptococcus magnus ATCC 29328; assay: Anti-anaerobic activity, additional strains, strain K; format: cell-based; settings: Finegoldia magna, ATCC29328
[12] = tested on: Peptococcus prevotti ATCC 9321; assay: Anti-anaerobic activity, additional strains, strain L; format: cell-based
[13] = tested on: Peptostreptococcus anaerobicus ATCC 27337; assay: Anti-anaerobic activity, additional strains, strain M; settings: ATCC27337
[14] = tested on: Clostridium difficile CI; assay: Anti-anaerobic activity, additional strains, strain H; settings: Clostridioides difficile
[15] = tested on: Campylobacter fetus ATCC 29428; assay: Anti-anaerobic activity, additional strains, strain I; settings: ATCC29428
[16] = strain A, 99.9% reduction in viable count, 48 hours
[17] = strain D, 48 hours at 37° C., anaerobic
[18] = 99.9% reduction in viable count, 48 hours
[19] = ATCC11295, strain J, read-out: MIC

| SMILES | MBC [1, 16] [µg/mL] | MIC ([1]; strain A) [µg/mL] | MBC ([2]; strain D) [µg/mL] | MIC [2, 17] [µg/mL] | MIC [3] [µg/mL] | MBC [4, 18] [µg/mL] | MIC ([4]; 48 hours at 37° C., anaerobic) [µg/mL] | MBC [5] [µg/mL] | MIC [5] [µg/mL] | MIC [7] [µg/mL] | MIC [8, 19] [µg/mL] | MIC [9] [µg/mL] | MIC ([10]; strain N, read-out: MIC) [µg/mL] | MIC [13] [µg/mL] | MIC [15] [µg/mL] | other results |
| --- | --- | --- | --- | --- | --- | --- | --- | --- | --- | --- | --- | --- | --- | --- | --- | --- |
| Cc1ccc(C(Cn2cncn2)C(=O)c2ccc(Cl)cc2Cl)cc1 (stereo not drawn) [Example 16, 1-(2,4-Dichlorophenyl)-2-(4-methylphenyl)-3-(1,2,4-triazol-1-yl)propan-1-one hydrochloride] | 3.1 | 3.1 | 15 | 0.8 | 1.5 | 3.1 | 3.1 | 3.1 | 3.1 |  |  |  |  |  |  |  |
| O=C(c1cccnc1)C(Cn1ccnc1)c1ccccc1 (stereo not drawn) [Example 19, 3-(Imidazol-1-yl)-2-phenyl-1-(3-pyridyl)propan-1-one] | 50 (≈ 180 µM) | 12.5 (≈ 45.1 µM) | 50 (≈ 180 µM) | 12.5 (≈ 45.1 µM) | 6.2 (≈ 22.4 µM) | 50 (≈ 180 µM) | 12.5 (≈ 45.1 µM) | 50 (≈ 180 µM) | 12.5 (≈ 45.1 µM) |  |  |  |  |  |  |  |
| CC(C)(C)C(Cn1ccnc1)C(=O)c1ccc(Cl)cc1Cl (stereo not drawn) [Example 22, 1-(2,4-Dichlorophenyl)-3,3-dimethyl-2-(imidazol-1-ylmethyl)butan-1-one] |  | 50 (≈ 154 µM) |  | 50 (≈ 154 µM) | 100 (≈ 307 µM) |  | 50 (≈ 154 µM) |  | 50 (≈ 154 µM) |  |  |  |  |  |  |  |
| O=C(c1cccnc1)C(Cn1cncn1)c1ccccc1 (stereo not drawn) [Example 20, 2-Phenyl-1-(3-pyridyl)-3-(1,2,4-triazol-1-yl)propan-1-one] |  | 100 (≈ 359 µM) |  | 100 (≈ 359 µM) | 100 (≈ 359 µM) |  | 100 (≈ 359 µM) |  | 100 (≈ 359 µM) |  |  |  |  |  |  |  |
| Cc1ccc(C(Cn2ccnc2)C(=O)c2ccc(Cl)cc2Cl)cc1 (stereo not drawn) [Example 15, 1-(2,4-Dichlorophenyl)-3-(imidazol-1-yl)-2-(4-methylphenyl) propan-1-one] | 0.8 (≈ 2.23 µM) | 0.8 (≈ 2.23 µM) | 0.8 (≈ 2.23 µM) | 0.8 (≈ 2.23 µM) | 0.8 (≈ 2.23 µM) | 0.8 (≈ 2.23 µM) | 0.8 (≈ 2.23 µM) | 0.8 (≈ 2.23 µM) | 0.8 (≈ 2.23 µM) | 0.3 (≈ 0.835 µM) | 0.3 (≈ 0.835 µM) | 0.6 (≈ 1.67 µM) | 0.6 (≈ 1.67 µM) |  |  | MIC ([6]; strain O, read-out: MIC): 0.1 µg/mL (≈ 0.278 µM) |
| CSc1nccn1CC(C(=O)c1ccc(Cl)cc1Cl)c1ccccc1 (stereo not drawn) [Example 24, 1-(2,4-Dichlorophenyl)-2-phenyl-3-(2-thiomethylimidazol-1-yl)propan-1-one] | 100 (≈ 256 µM) | 25 (≈ 63.9 µM) | 100 (≈ 256 µM) | 25 (≈ 63.9 µM) | 50 (≈ 128 µM) | 100 (≈ 256 µM) | 25 (≈ 63.9 µM) | 100 (≈ 256 µM) | 25 (≈ 63.9 µM) |  |  |  |  |  |  |  |
| CCCCCCCC(=O)C(Cn1ccnc1)c1ccc(C)cc1 (stereo not drawn) [Example 17, 1-(Imidazol-1-yl)-2-(4-methylphenyl)decan-3-one hydrochloride] | 100 | 12.5 | 100 | 3.1 | 12.5 | 100 | 12.5 |  |  |  |  |  |  |  |  |  |
| O=C(c1ccccn1)C(Cn1ccnc1)c1ccccc1 (stereo not drawn) [Example 21, 3-(Imidazol-1-yl)-2-phenyl-1-(2-pyridyl)propan-1-one] | 12.5 (≈ 45.1 µM) | 12.5 (≈ 45.1 µM) | 6.2 (≈ 22.4 µM) | 6.2 (≈ 22.4 µM) | 25 (≈ 90.1 µM) | 25 (≈ 90.1 µM) | 25 (≈ 90.1 µM) | 12.5 (≈ 45.1 µM) | 6.2 (≈ 22.4 µM) |  |  |  |  |  |  |  |
| O=C(c1ccc(Cl)cc1Cl)C(Cn1ccnc1)c1ccccc1 (stereo not drawn) [Example 2, 1-(2,4-Dichlorophenyl)-3-(imidazol-1-yl)-2-phenylpropan-1-one] | 0.8 (≈ 2.32 µM) | 0.8 (≈ 2.32 µM) | 0.8 (≈ 2.32 µM) | 0.8 (≈ 2.32 µM) | 0.8 (≈ 2.32 µM) | 0.8 (≈ 2.32 µM) | 0.8 (≈ 2.32 µM) | 0.8 (≈ 2.32 µM) | 0.8 (≈ 2.32 µM) | 0.8 (≈ 2.32 µM) |  | 0.8 (≈ 2.32 µM) |  | 0.8 (≈ 2.32 µM) | 0.8 (≈ 2.32 µM) | MIC [11]: 0.8 µg/mL (≈ 2.32 µM); MIC [12]: 0.8 µg/mL (≈ 2.32 µM); MIC [6]: 0.8 µg/mL (≈ 2.32 µM); MIC ([8]; ATCC11295): 0.8 µg/mL (≈ 2.32 µM); MIC [14]: 0.8 µg/mL (≈ 2.32 µM); MIC [10]: 0.8 µg/mL (≈ 2.32 µM) |
| O=C(Cc1ccccc1)C(Cn1ccnc1)c1ccccc1 (stereo not drawn) [Example 25, 1,3-Diphenyl-4-(imidazol-1-yl)butan-2-one] |  | 25 (≈ 86.1 µM) |  | 12.5 (≈ 43 µM) | 25 (≈ 86.1 µM) |  | 25 (≈ 86.1 µM) |  | 25 (≈ 86.1 µM) | 0.8 (≈ 2.76 µM) | 100 (≈ 344 µM) | 0.8 (≈ 2.76 µM) | 50 (≈ 172 µM) | 1.5 (≈ 5.17 µM) | 25 (≈ 86.1 µM) | MIC ([11]; strain K, read-out: MIC): 6.2 µg/mL (≈ 21.4 µM); MIC [12]: 0.8 µg/mL (≈ 2.76 µM); MIC ([14]; strain H): 25 µg/mL (≈ 86.1 µM) |
| Cc1ncc([N+](=O)[O-])n1CCO [Metronidazole, reference compound] | 0.8 (≈ 4.67 µM) |  |  |  |  | 0.8 (≈ 4.67 µM) | 0.8 (≈ 4.67 µM) |  |  | 0.08 (≈ 0.467 µM) | 10 (≈ 58.4 µM) |  | 10 (≈ 58.4 µM) | 0.3 (≈ 1.75 µM) | 10 (≈ 58.4 µM) | MIC ([11]; strain K, read-out: MIC): 0.6 µg/mL (≈ 3.51 µM); MBC [1]: 1.2 µg/mL (≈ 7.01 µM); MBC (Minimum Bactericidal Concentration) [1, 16]: 1.2 µg/mL and 0.6 µg/mL; MIC ([6]; strain O, read-out: MIC): 10 µg/mL (≈ 58.4 µM); MIC [2]: 10 µg/mL (≈ 58.4 µM); MIC (Minimum Inhibitory Concentration) [2, 17]: 10.9 µg/mL and 10.0 µg/mL and 10 µg/mL; MBC (Minimum Bactericidal Concentration) [4, 18]: 1.2 µg/mL and 0.6 µg/mL; MIC (Minimum Inhibitory Concentration) ([4]; 48 hours at 37° C., anaerobic): 0.6 µg/mL and 1.2 µg/mL |
| O=C(c1ccc(Cl)cc1Cl)C(Cn1cncn1)c1ccccc1 (stereo not drawn) [Example 23, 1-(2,4-Dichlorophenyl)-2-phenyl-3-(1,2,4-triazol-1-yl) propan-1-one] | 0.8 (≈ 2.31 µM) | 0.8 (≈ 2.31 µM) | 0.8 (≈ 2.31 µM) | 0.8 (≈ 2.31 µM) | 0.8 (≈ 2.31 µM) | 0.8 (≈ 2.31 µM) | 0.8 (≈ 2.31 µM) | 0.8 (≈ 2.31 µM) | 0.8 (≈ 2.31 µM) |  |  |  |  |  |  |  |
| O=C(c1cc(Cl)cc(Cl)c1)C(Cn1ccnc1)c1ccccc1 (stereo not drawn) [Example 18, 1-(3,5-Dichlorophenyl)-3-(imidazol-1yl)-2-phenyl propan-1-one] | 1.5 (≈ 4.34 µM) | 0.8 (≈ 2.32 µM) | 1.5 (≈ 4.34 µM) | 0.8 (≈ 2.32 µM) | 1.5 (≈ 4.34 µM) | 1.5 (≈ 4.34 µM) | 1.5 (≈ 4.34 µM) | 0.8 (≈ 2.32 µM) | 0.8 (≈ 2.32 µM) | 3.1 (≈ 8.98 µM) | 6.2 (≈ 18 µM) | 3.1 (≈ 8.98 µM) | 6.2 (≈ 18 µM) | 6.2 (≈ 18 µM) | 3.1 (≈ 8.98 µM) | MIC [11]: 3.1 µg/mL (≈ 8.98 µM); MIC [12]: 3.1 µg/mL (≈ 8.98 µM); MIC [6]: 3.1 µg/mL (≈ 8.98 µM); MIC ([14]; strain H): 1.5 µg/mL (≈ 4.34 µM) |
